# Counter-ions that a name gives are not always drawn.
# What was measured:
# [1] = tested on: AB-PINACA antibody (raised against immunogen 2 of Example 6); test: AB-PINACA ELISA, final validated kit with Tracer-2 (Example 10), specificity; format: binding; settings: for % Cross-Reactivity: AB-PINACA N-Pentanoic acid = 100
# Procedure: A microtitre plates was precoated with AB-PINACA antibody (raised against immunogen 2 of Example 6). Pinaca derivative (antigen), if present in the sample competes with the horseradish peroxidase labelled AB-PINACA (enzyme labelled antigen, herein Tracer-2 of Example 8) for a limited number of antibody sites on the microtitre plate. After incubation at room temperature to allow a competition reaction to take place, the microtitre plate was washed to remove excess reagents. The enzyme substrate ([…]) was added. After an incubation period to allow maximum colour development, the colour reaction was stopped by the addition of acid. This produces a colour change from blue to yellow, and the absorbances are read at 450 nm. A standard curve was then constructed to determine the Pinaca derivative's concentration in the sample.
# All reagents were left to reach room temperature (+15 to +25° C.) prior to use. In order to minimise edge effects microtitre plate was sealed with an adhesive plate sealer.
# The assay was performed in duplicate. The following layout was used for a test plate where each box represents 2 wells.
# • a) The following was pipetted into the appropriate wells of the microtitre plate:
# • b) The microtitre plate was gently tapped plate from side to side for a few seconds. • c) The microtitre plate was covered with a plate sealer before incubating for 30 minutes at room temperature (+15 to +25° C.) in the dark. • d) The plate was inverted and the liquid was tapped out. • e) The plate was washed 6 times with diluted wash buffer (ensuring all wells were filled), over a 10-15 minute period. After the final wash the liquid was discarded and the plate was tapped onto lint free tissue paper until completely dry. • f) Immediately after washing, 125 μL of the one shot substrate II solution was pipetted into each well using a multichannel pipette. The microtitre plate was gently tapped from side to side and incubated for (20±2 minutes) at room temperature (+15 to +25° C.) in the dark. • g) The colour reaction was stopped by the addition of 100 μL of stop solution per well. A colour change from blue to yellow should be evident. • h) The optical density was measured at 450 nm within 10 minutes of stopping the colour reaction. The use of a 630 nm filter is recommended as the reference wavelength, if available. Standard Curve and Interpretation of Results • a) The mean absorbance of the standards, controls and samples were calculated. • b) The absorbances of standards against log10 (standard concentration) were plotted. • c) The control and sample concentrations were read from the standard curve. • d) To obtain concentrations for urine samples in ng/mL, the results were multiplied by 3 to take into account the dilution factor. • e) To obtain concentrations for whole blood samples in ng/mL, the results were multiplied by 4 to take into account the dilution factor. • f) It is recommended that a 4 parameter curve fit method is used when generating the standard curve. Limits of Detection
# [2] = tested on: Antibody to AB-Pinaca-KLH (raised against immunogen 2 of Example 6); test: Competitive ELISA characterising antibodies to AB-Pinaca-KLH with Tracer-1 (Example 9); format: binding; settings: for % CR (percentage cross-reactivity): AB-Pinaca = 100.00; for IC50 (standard concentration which produces 50% inhibition of maximal signal): calibration curves 0-20 ng/ml
# Procedure: The wells of an enhanced binding 96 well polystyrene microtitre plate were coated with IgG fraction of antiserum raised to AB-Pinaca-KLH (Immunogen 2 of Example 6), diluted in 10 mM Tris, pH8.5 (125 μl/well). The appropriate antibody coating dilution was determined using standard ELISA checkerboard techniques. The plate was incubated for 2 hours at 37° C., washed 4 times over 10 minutes with Tris buffered saline containing Tween 20 (TBST) and tapped dry. Standard solutions of AB-Pinaca pentanoic acid were prepared in TBST at 0, 0.31, 0.63, 1.25, 2.50, 5.0, 10.0 and 20.0 ng/ml, and 50 μl of each was added to the appropriate wells. 75 μl of Tracer-1 (Example 7) diluted in Tris buffer (pH 7.2) containing EDTA, D-mannitol, sucrose, thimerosal and BSA, was added to each of the wells. The appropriate dilution of tracer was also determined using standard ELISA checkerboard techniques. The plate was incubated at 25° C. for 1 hour. Excess unbound tracer was removed by washing 6 times over a 10-15 minute period with TBST and tapped dry. 125 μl of tetramethylbenzidine (TMB) substrate solution was added to each well of the plate that was then incubated for 20 minutes in the dark at room temperature. The reaction was terminated by addition of 125 μl 0.2 M H2SO4 to each well. The absorbance was measured at 450 nm using a microtitre plate reader. In order to determine the specificity of the competitive ELISAs, standard solutions of a range of structurally similar compounds were prepared in TBST. Using calibration curves generated from these compounds (0-20 ng/ml), the cross-reactivity was determined.
Compound,% Cross-Reactivity [1] [%],% CR (percentage cross-reactivity) [2] [%],IC50 (standard concentration which produces 50% inhibition of maximal signal) [2] [ng/mL],B/Bo (Percentage B/B0) ([2]; standard conc 0.31 ng/ml) [%],OD (absorbance at 450 nm) ([2]; standard conc 0.31 ng/ml),B/Bo (Percentage B/B0) ([2]; standard conc 0.63 ng/ml) [%],OD (absorbance at 450 nm) ([2]; standard conc 0.63 ng/ml),B/Bo (Percentage B/B0) ([2]; standard conc 1.25 ng/ml) [%],OD (absorbance at 450 nm) ([2]; standard conc 1.25 ng/ml),B/Bo (Percentage B/B0) ([2]; standard conc 2.50 ng/ml) [%],OD (absorbance at 450 nm) ([2]; standard conc 2.50 ng/ml),B/Bo (Percentage B/B0) ([2]; standard conc 5.00 ng/ml) [%],OD (absorbance at 450 nm) ([2]; standard conc 5.00 ng/ml),B/Bo (Percentage B/B0) ([2]; standard conc 10.00 ng/ml) [%],OD (absorbance at 450 nm) ([2]; standard conc 10.00 ng/ml),B/Bo (Percentage B/B0) ([2]; standard conc 20.00 ng/ml) [%],OD (absorbance at 450 nm) ([2]; standard conc 20.00 ng/ml),Concentration of compounds that elicit a negative response at the indicated concentration [1] [ng/mL]
"CC(C)C(NC(=O)c1nn(CCCCCO)c2ccccc12)C(N)=O (stereo not shown) [1-(5-OHpentyl) AB-Pinaca, 1-(5-hydroxypentyl) AB-Pinaca]",83.8,124.80,0.887,68.9,1.415,56.6,1.163,43.6,0.896,33.6,0.690,24.5,0.504,17.3,0.356,11.8,0.242,
"CC(C)C(NC(=O)c1nn(CCCCCF)c2ccccc12)C(N)=O (stereo not shown) [5-fluoro AB-Pinaca, 5-fluoropentyl AB-Pinaca]",98.9,203.49,0.544,60.2,1.351,47.7,1.070,36.5,0.819,28.0,0.629,20.6,0.462,14.5,0.326,10.1,0.227,
"CC(C)C(NC(=O)c1nn(Cc2ccc(F)cc2)c2ccccc12)C(N)=O (stereo not shown) [AB-Fubinaca, N-(1-amino-3-methyl-1-oxobutan-2-yl)-1-(4-fluorobenzyl)-1H-indazole-3-carboxamide]",35.3,71.60,1.546,72.0,1.541,64.4,1.379,52.3,1.120,42.7,0.915,32.4,0.695,22.9,0.491,15.7,0.337,
CC(C)C(NC(=O)c1nn(CCCCC(=O)O)c2ccccc12)C(N)=O (stereo not shown) [AB-Pinaca pentanoic acid],100,64.25,1.723,77.4,1.698,69.7,1.529,55.8,1.223,42.2,0.926,30.7,0.673,21.2,0.465,14.5,0.317,
"CCCCCn1nc(C(=O)NC(C(N)=O)C(C)C)c2ccccc21 (stereo not shown) [AB-Pinaca, N-(1-amino-3-methyl-1-oxobutan-2-yl)-1-pentyl-1H-indazole-3-carboxamide]",52.4,100.00,1.107,70.1,1.532,60.7,1.325,47.4,1.036,35.6,0.778,27.2,0.593,18.5,0.404,12.2,0.267,
CCCCCn1cc(C(=O)c2ccc(OC)cc2)c2ccccc21 [RCS-4],<1,,,,,,,,,,,,,,,,,
COc1ccccc1CC(=O)c1cn(CCC2CCCCC2)c2ccccc12 [RCS-8],,,,,,,,,,,,,,,,,,100
CNC(=C[N+](=O)[O-])NCCSCc1ccc(CN(C)C)o1 [Ranitidine HCl],,,,,,,,,,,,,,,,,,10000
O=C(O)CCCCn1cc(C(=O)NC23CC4CC(CC(C4)C2)C3)c2ccccc21 [SDB-001 N-Pentanoic acid],<1,,,,,,,,,,,,,,,,,
O=C(NC12CC3CC(CC(C3)C1)C2)c1cn(CCCCCF)c2ccccc12 [STS-135],,,,,,,,,,,,,,,,,,100
O=C(c1cccc2ccccc12)c1nn(CCCCCF)c2ccccc12 [THJ 2201],,,,,,,,,,,,,,,,,,100
CC1(C)C(C(=O)c2cn(CCCCC(=O)O)c3ccccc23)C1(C)C [UR-144 N-Pentanoic acid],,,,,,,,,,,,,,,,,,100
CCCCCn1cc(C(=O)C2C(C)(C)C2(C)C)c2ccccc21 [UR-144],,,,,,,,,,,,,,,,,,100
CC1(C)C(C(=O)c2cn(CCCCCF)c3ccccc23)C1(C)C [XLR-11],,,,,,,,,,,,,,,,,,100
